# From US6949383B2 (priority 1998, dated 2005)
# Legend:
# dnaQ = format: cell-based, Escherichia coli
# Wild-Type = format: cell-based, Escherichia coli
# Super-Amp-resistant dnaQ = format: cell-based, Escherichia coli
# dnaQ49 strain [1] = experiment: Ampicillin concentration-survival (colony forming) after mutagenesis runs; format: cell-based, Escherichia coli; conditions: for AC: Ampicillin Concentration (maximum concentration for ampicillin resistance): dnaQ49 strain
# wild type (dnaQ+ strain) = experiment: Ampicillin concentration-survival (colony forming) after mutagenesis runs, with or without MNNG; format: cell-based, Escherichia coli; conditions: for Maximum concentration for ampicillin resistance: wild type and MNNG wild type
# [2] = test system: ampicillin-resistant Escherichia coli; conditions: resistance due to plasmid; cited from earlier work
# [3] = test system: Super-Stre.-resisting dnaQ; experiment: Minimum growth inhibiting concentration (MIC) of antibiotic substances; format: cell-based, Escherichia coli
# dnaQ49 strain [4] = experiment: Drug resistance reached by repeated mutagenesis and selection (Example 2); format: cell-based, Escherichia coli
# dnaQ+ strain (wild type) = format: cell-based, Escherichia coli
# [5] = test system: Super-Nali.-resisting dnaQ; experiment: Minimum growth inhibiting concentration (MIC) of antibiotic substances; format: cell-based, Escherichia coli
# [6] = mutagenesis treatment for 1 time
# [7] = mutagenesis treatments for 2 times
# [8] = mutagenesis treatments for 3 times
# [9] = mutagenesis treatments for 4 times
# [10] = mutagenesis treatments for 5 times
# [11] = mutagenesis treatments for 6 times
# [12] = mutagenesis treatments for 7 times
# [13] = mutagenesis treatments for 8 times
# [14] = mutagenesis treatments for 9 times
# [15] = mutagenesis treatments for 10 times
# [16] = mutagenesis treatments for 11 times
# [17] = mutagenesis treatments for 12 times
# [18] = mutagenesis treatments for 13 times
# [19] = mutagenesis treatments for 14 times
# [20] = mutagenesis treatments for 15 times
# [21] = mutagenesis treatments for 16 times
# [22] = mutagenesis treatments for 17 times
# [23] = mutagenesis treatments for 18 times
# [24] = mutagenesis treatments for 19 times
# [25] = mutagenesis treatments for 20 times
# [26] = mutagenesis treatments for 21 times
# [27] = mutagenesis treatments for 22 times
# [28] = mutagenesis treatments for 23 times
smiles,measurement,setting,value
CO[C@H]1/C=C/O[C@@]2(C)Oc3c(C)c(O)c4c(O)c(c(/C=N/N5CCN(C)CC5)c(O)c4c3C2=O)NC(=O)/C(C)=C\C=C\[C@H](C)[C@H](O)[C@@H](C)[C@@H](O)[C@@H](C)[C@H](OC(C)=O)[C@@H]1C [Rifampicin],Minimum growth inhibiting concentration (MIC),dnaQ,8
same,Minimum growth inhibiting concentration (MIC),Wild-Type,4
same,Minimum growth inhibiting concentration (MIC),Super-Amp-resistant dnaQ,2
CC1(C)S[C@@H]2[C@H](NC(=O)[C@H](N)c3ccccc3)C(=O)N2[C@H]1C(=O)O [Ampicillin],Ampicillin resistance of strain obtained,"dnaQ49 strain [1]; another dnaQ49 strain, five mutagenesis treatments (FIG. 7)","about 10,000 g/ml"
same,Ampicillin resistance from concentration-survival curve,"dnaQ49 strain [1]; dnaQ49 strain before introduction of mutation, compared with wild type, 24° C., two days",slightly stronger ampicillin resistance than the wild type
same,AC: Ampicillin Concentration (maximum concentration for ampicillin resistance),dnaQ49 strain [1]; 1st Run of mutagenesis,30 µg/mL
same,AC: Ampicillin Concentration (maximum concentration for ampicillin resistance),dnaQ49 strain [1]; 2nd Run of mutagenesis,300 µg/mL
same,AC: Ampicillin Concentration (maximum concentration for ampicillin resistance),dnaQ49 strain [1]; 3rd Run of mutagenesis,1000 µg/mL
same,AC: Ampicillin Concentration (maximum concentration for ampicillin resistance),dnaQ49 strain [1]; 4th Run of mutagenesis,3000 µg/mL
same,AC: Ampicillin Concentration (maximum concentration for ampicillin resistance),dnaQ49 strain [1]; 5th Run of mutagenesis,6000 µg/mL
same,AC: Ampicillin Concentration (maximum concentration for ampicillin resistance),"dnaQ49 strain [1]; 5th Run of mutagenesis, listed as ampicillin","about 6,000 μg/ml"
same,Ampicillin resistance of resistant microorganism obtained,"wild type (dnaQ+ strain); MNNG-treated group, low-concentration treatment",300 µg/mL
same,AC: Ampicillin Concentration (maximum concentration for ampicillin resistance),"wild type (dnaQ+ strain); Wild type (MNNG Concn 0), 1st Run",3 µg/mL
same,AC: Ampicillin Concentration (maximum concentration for ampicillin resistance),"wild type (dnaQ+ strain); Wild type (MNNG Concn 0), 2nd Run",10 µg/mL
same,AC: Ampicillin Concentration (maximum concentration for ampicillin resistance),"wild type (dnaQ+ strain); Wild type (MNNG Concn 0), 3rd Run",10 µg/mL
same,AC: Ampicillin Concentration (maximum concentration for ampicillin resistance),"wild type (dnaQ+ strain); Wild type (MNNG Concn 0), 4th Run",10 µg/mL
same,AC: Ampicillin Concentration (maximum concentration for ampicillin resistance),"wild type (dnaQ+ strain); Wild type (MNNG Concn 0), 5th Run",60 µg/mL
same,AC: Ampicillin Concentration (maximum concentration for ampicillin resistance),"wild type (dnaQ+ strain); Wild type (MNNG Concn 1), 1st Run",3 µg/mL
same,AC: Ampicillin Concentration (maximum concentration for ampicillin resistance),"wild type (dnaQ+ strain); Wild type (MNNG Concn 1), 2nd Run",10 µg/mL
same,AC: Ampicillin Concentration (maximum concentration for ampicillin resistance),"wild type (dnaQ+ strain); Wild type (MNNG Concn 1), 3rd Run",10 µg/mL
same,AC: Ampicillin Concentration (maximum concentration for ampicillin resistance),"wild type (dnaQ+ strain); Wild type (MNNG Concn 1), 4th Run",10 µg/mL
same,AC: Ampicillin Concentration (maximum concentration for ampicillin resistance),"wild type (dnaQ+ strain); Wild type (MNNG Concn 1), 5th Run",60 µg/mL
same,AC: Ampicillin Concentration (maximum concentration for ampicillin resistance),"wild type (dnaQ+ strain); Wild type (MNNG Concn 3), 1st Run",3 µg/mL
same,AC: Ampicillin Concentration (maximum concentration for ampicillin resistance),"wild type (dnaQ+ strain); Wild type (MNNG Concn 3), 2nd Run",30 µg/mL
same,AC: Ampicillin Concentration (maximum concentration for ampicillin resistance),"wild type (dnaQ+ strain); Wild type (MNNG Concn 3), 3rd Run",100 µg/mL
same,AC: Ampicillin Concentration (maximum concentration for ampicillin resistance),"wild type (dnaQ+ strain); Wild type (MNNG Concn 3), 4th Run",300 µg/mL
same,AC: Ampicillin Concentration (maximum concentration for ampicillin resistance),"wild type (dnaQ+ strain); Wild type (MNNG Concn 6), 1st Run",3 µg/mL
same,AC: Ampicillin Concentration (maximum concentration for ampicillin resistance),"wild type (dnaQ+ strain); Wild type (MNNG Concn 6), 2nd Run",6 µg/mL
same,AC: Ampicillin Concentration (maximum concentration for ampicillin resistance),"wild type (dnaQ+ strain); Wild type (MNNG Concn 6), 3rd Run",10 µg/mL
same,AC: Ampicillin Concentration (maximum concentration for ampicillin resistance),"wild type (dnaQ+ strain); Wild type (MNNG Concn 6), 4th Run",10 µg/mL
same,AC: Ampicillin Concentration (maximum concentration for ampicillin resistance),"wild type (dnaQ+ strain); Wild type (MNNG Concn 6), 5th Run",30 µg/mL
same,AC: Ampicillin Concentration (maximum concentration for ampicillin resistance),"wild type (dnaQ+ strain); Wild type (MNNG Concn 10), 1st Run",6 µg/mL
same,AC: Ampicillin Concentration (maximum concentration for ampicillin resistance),"wild type (dnaQ+ strain); Wild type (MNNG Concn 30), 1st Run",3 µg/mL
same,Maximum concentration for ampicillin resistance,wild type (dnaQ+ strain); after first mutagenesis,3˜6 μg/ml
same,Maximum concentration for ampicillin resistance,wild type (dnaQ+ strain); after second mutagenesis,6˜30 μg/ml
same,Minimum growth inhibiting concentration (MIC),dnaQ,2
same,Minimum growth inhibiting concentration (MIC),Wild-Type,1
same,Minimum growth inhibiting concentration (MIC),Super-Amp-resistant dnaQ,2048
same,Resistance concentration of ampicillin-resistant Escherichia coli reported up to now,[2],"1,500 μg/ml"
[H]/N=C(/N)N[C@H]1[C@H](O)[C@@H](O)[C@H](O[C@@H]2O[C@@H](C)[C@](O)(C=O)[C@H]2O[C@@H]2O[C@@H](CO)[C@H](O)[C@@H](O)[C@@H]2NC)[C@@H](N/C(N)=N\[H])[C@@H]1O [Streptomycin],Minimum growth inhibiting concentration (MIC),dnaQ,1
same,Minimum growth inhibiting concentration (MIC),Wild-Type,1
same,Minimum growth inhibiting concentration (MIC),Super-Amp-resistant dnaQ,0.5
same,Minimum growth inhibiting concentration (MIC),[3],2048
same,Concentration of Streptomycin,dnaQ49 strain [4]; [6],1 µg/mL
same,Concentration of Streptomycin,dnaQ49 strain [4]; [7],10 µg/mL
same,Concentration of Streptomycin,dnaQ49 strain [4]; [8],100 µg/mL
same,Concentration of Streptomycin,dnaQ49 strain [4]; [9],1000 µg/mL
same,Concentration of Streptomycin,dnaQ49 strain [4]; [10],3000 µg/mL
same,Concentration of Streptomycin,dnaQ49 strain [4]; [11],4000 µg/mL
same,Concentration of Streptomycin,dnaQ49 strain [4]; [12],6000 µg/mL
same,Concentration of Streptomycin,dnaQ49 strain [4]; [13],8000 µg/mL
same,Concentration of Streptomycin,dnaQ49 strain [4]; [14],9000 µg/mL
same,Concentration of Streptomycin,dnaQ49 strain [4]; [15],10000 µg/mL
same,Concentration of Streptomycin,dnaQ49 strain [4]; [16],12000 µg/mL
same,Concentration of Streptomycin,dnaQ49 strain [4]; [17],14000 µg/mL
same,Concentration of Streptomycin,dnaQ49 strain [4]; [18],16000 µg/mL
same,Concentration of Streptomycin,dnaQ49 strain [4]; [19],17000 µg/mL
same,Concentration of Streptomycin,dnaQ49 strain [4]; [20],18000 µg/mL
same,Concentration of Streptomycin,dnaQ49 strain [4]; [21],19000 µg/mL
same,Concentration of Streptomycin,dnaQ49 strain [4]; [22],20000 µg/mL
same,Concentration of Streptomycin,dnaQ49 strain [4]; [23],21000 µg/mL
same,Concentration of Streptomycin,dnaQ49 strain [4]; [24],22000 µg/mL
same,Concentration of Streptomycin,dnaQ49 strain [4]; [25],23000 µg/mL
same,Concentration of Streptomycin,dnaQ49 strain [4]; [26],24000 µg/mL
same,Concentration of Streptomycin,dnaQ49 strain [4]; [27],25000 µg/mL
same,Concentration of Streptomycin,dnaQ49 strain [4]; [28],26000 µg/mL
same,Concentration of Streptomycin,"dnaQ49 strain [4]; mutagenesis treatments for 23 times, listed as streptomycin","26,000 μg/ml"
same,Growth of dnaQ+ strain (wild type) in the presence of drug,dnaQ+ strain (wild type),*3) dnaQ+ strain (wild type) did not grow in the presence of 10 μg/ml of streptomycin.
CO/N=C(\C(=O)N[C@@H]1C(=O)N2C(C(=O)O)=C(COC(C)=O)CS[C@H]12)c1csc(N)n1 [Cefotaxime],Minimum growth inhibiting concentration (MIC),dnaQ,0.0313
same,Minimum growth inhibiting concentration (MIC),Wild-Type,0.0156
same,Minimum growth inhibiting concentration (MIC),Super-Amp-resistant dnaQ,64
same,Resistance of ampicillin-resistant dnaQ49 strain to other antibiotic substances (MIC investigation),Super-Amp-resistant dnaQ,strong resistance
CCn1cc(C(=O)O)c(=O)c2ccc(C)nc21 [Nalidixic acid],Minimum growth inhibiting concentration (MIC),dnaQ,1
same,Minimum growth inhibiting concentration (MIC),Wild-Type,2
same,Minimum growth inhibiting concentration (MIC),Super-Amp-resistant dnaQ,0.5
same,Minimum growth inhibiting concentration (MIC),[5],2048
same,Concentration of Nalidixic Acid,dnaQ49 strain [4]; [6],1 µg/mL
same,Concentration of Nalidixic Acid,dnaQ49 strain [4]; [7],10 µg/mL
same,Concentration of Nalidixic Acid,dnaQ49 strain [4]; [8],100 µg/mL
same,Concentration of Nalidixic Acid,dnaQ49 strain [4]; [9],200 µg/mL
same,Concentration of Nalidixic Acid,dnaQ49 strain [4]; [10],400 µg/mL
same,Concentration of Nalidixic Acid,dnaQ49 strain [4]; [11],600 µg/mL
same,Concentration of Nalidixic Acid,dnaQ49 strain [4]; [12],1000 µg/mL
same,Concentration of Nalidixic Acid,dnaQ49 strain [4]; [13],1100 µg/mL
same,Concentration of Nalidixic Acid,dnaQ49 strain [4]; [14],1200 µg/mL
same,Concentration of Nalidixic Acid,dnaQ49 strain [4]; [15],1300 µg/mL
same,Concentration of Nalidixic Acid,dnaQ49 strain [4]; [16],1400 µg/mL
same,Concentration of Nalidixic Acid,dnaQ49 strain [4]; [17],1600 µg/mL
same,Concentration of Nalidixic Acid,dnaQ49 strain [4]; [18],1800 µg/mL
same,Concentration of Nalidixic Acid,dnaQ49 strain [4]; [19],2000 µg/mL
same,Concentration of Nalidixic Acid,dnaQ49 strain [4]; [20],2500 µg/mL
same,Concentration of Nalidixic Acid,dnaQ49 strain [4]; [21],3000 µg/mL
same,Concentration of Nalidixic Acid,dnaQ49 strain [4]; [22],4000 µg/mL
same,Concentration of Nalidixic Acid,dnaQ49 strain [4]; [23],5000 µg/mL
same,Concentration of Nalidixic Acid,dnaQ49 strain [4]; [24],6000 µg/mL
same,Concentration of Nalidixic Acid,dnaQ49 strain [4]; [25],6200 µg/mL
same,Concentration of Nalidixic Acid,dnaQ49 strain [4]; [26],6400 µg/mL
same,Concentration of Nalidixic Acid,dnaQ49 strain [4]; [27],6600 µg/mL
same,Concentration of Nalidixic Acid,dnaQ49 strain [4]; [28],6800 µg/mL
same,Concentration of Nalidixic Acid,"dnaQ49 strain [4]; mutagenesis treatments for 24 times, listed as Nalidixic Acid",7000 µg/mL
same,Concentration of Nalidixic Acid,"dnaQ49 strain [4]; mutagenesis treatments for 24 times, listed as nalidixic acid","7,000 μg/ml"
same,Growth of dnaQ+ strain (wild type) in the presence of drug,dnaQ+ strain (wild type),*3) dnaQ+ strain (wild type) did not grow in the presence of 10 μg/ml of nalidixic acid.
O=C(N[C@H](CO)[C@H](O)c1ccc([N+](=O)[O-])cc1)C(Cl)Cl [Chloramphenicol],Minimum growth inhibiting concentration (MIC),dnaQ,1
same,Minimum growth inhibiting concentration (MIC),Wild-Type,0.5
same,Minimum growth inhibiting concentration (MIC),Super-Amp-resistant dnaQ,0.5
